# Results published in patent publication US8883856B2, “Compositions and methods for the treatment of inflammatory diseases using topoisomerase inhibitors” (priority 2000, dated 2014).
# Legend:
# [1] = Encapsulation efficiency of drug in polymer microspheres; assay type: physicochemical
# Experimental: Camptothecin (Sigma) was dissolved in a 5% (w/v) solution of poly(L-lactic acid) (2K molecular weight, Polysciences) in various ratios of drug to polymer (from 0.5:100 to 8:100 (w/w). Ten ml of each of these solutions were pipetted into 100 ml of a 2.5% (w/v) solution of poly vinyl alcohol (PVA, mol wt 13-21K Aldrich) with over head stirring at 500 rpm. After two hours stirring the PVA/microsphere suspension was poured through 90 um then 50 um sieves to collect the 50-90 um fraction of microspheres. These spheres were then washed in distilled water three times and dried under vacuum. The dried spheres were obtained in high yields (over 50% of the initial polymer was recovered as microspheres in the 50-90 um size range). […] Encapsulation efficiency was measured by dissolving microspheres in 1 ml of dichlomethane, extracting the drug into a 60/40 (v/v) acetonitrile water mixture and analysis by visible absorbance at 370 nm. The encapsulation efficiency of the drug in the polymer varied with the initial ratio of drug to polymer with high ratios resulting in a high level of encapsulation.
# Plumbagin (Sigma) was dissolved in a 5% (w/v) solution of poly (L-lactic acid) (2K molecular weight, Polysciences) to give a final ratio of drug to polymer of 1:10 (w/w). Ten ml of this solution was pipetted into 100 ml of a 2.5% (w/v) solution of poly vinyl alcohol (PVA, mol wt 13-21K Aldrich) with over head stirring at 500 rpm. After two hours stirring the PVA/microsphere suspension was poured through 90 um then 50 um sieves to collect the 50-90 um fraction of microspheres. These spheres were then washed in distilled water three times and dried under vacuum. The dried spheres were obtained in high yields with over 50% of the initial polymer being recovered in microspheres in the 50-90 um size range. The microspheres were dense yellow in colour indicating high encapsulation efficiency of the drug plumbagin. The encapsulation efficiency was measured by dissolving the microspheres in 1 ml of dichlomethane, extracting the drug into a 60/40 (v/v) acetonitrile water mixture and analysis by visible absorbance at 420 nm. The encapsulation efficiency of the drug in the polymer was 80%.
# Ten ml of each solution was pipetted into 100 ml of a 2.5% (w/v) solution of poly vinyl alcohol (PVA, mol wt 13-21K Aldrich) with over head stirring at 500 rpm. After two hours stirring the PVA/microsphere suspension was poured through 90 um then 50 um sieves to collect the 50-90 um fraction of microspheres. These spheres were then washed in distilled water three times and dried under vacuum. The dried spheres were obtained in high yields (over 50% of the initial polymer was recovered as microspheres in the 50-90 um size range).
# Ten ml of each solution was pipetted into 100 ml of a 2.5% (w/v) solution of poly vinyl alcohol (PVA, mol wt 13-21K Aldrich) with over head stirring at 500 rpm. After two hours stirring the PVA/microsphere suspension was poured through 90 um then 50 um sieves to collect the 50-90 um fraction of microspheres. These spheres were then washed in distilled water three times and dried under vacuum.
# neutrophils [2] = assay: Neutrophil degranulation (myeloperoxidase release); assay type: cell-based, human; conditions: CPPD crystals and fMLP
# Experimental: Eppendorf tubes containing either 25 mg of CPPD or 1 uM fMLP (with 0.5 uM cytochalasin B) were maintained at 37° C. To the tubes were added 0.5 mL of cells at 37° C. followed by shaking to initiate the reactions. At appropriate times, tubes were centrifuged at 10,000× g for 10 s and 0.4 mL of supernatant was stored at −20° C. for later assay. Myeloperoxidase (MPO) activity was measured by the increase in absorbance at 450 nm that accompanies the oxidation of o-dianisidine. Dianisidine (7.8 mg) was dissolved in 100 mL of 0.1 M citrate buffer, pH 5.5 and to a 1 mL cuvette were added 0.89 mL of the dianisidine solution, followed by […], […] and […]. MPO activity was determined from the change in absorbance (450 nm) per minute, (ΔA450), using the following relationship: Dianisidine oxidation (nmol/min)=50 ΔA450
# neutrophils [3] = assay: Neutrophil superoxide anion generation (cytochrome c reduction); assay type: cell-based, human; conditions: CPPD crystals or fMLP
# Experimental: Superoxide anion concentrations were measured using the superoxide dismutase inhibitable reduction of cytochrome c assay. Twenty five mg of crystals or fMLP (final concentration 1 uM with cytochalasin B at 0.5 uM) were placed in 1.5 mL capped Eppendorf tubes and warmed to 37° C. To the tubes were added 0.5 mL of cells at 37° C. and ferricytochrome c (horse heart, type 3) (final concentration 1.2 mg/mL) and the cells were activated by shaking the capped tubes. At appropriate times, tubes were centrifuged at 10,000×g for 10 seconds and the supernatant collected for spectrophotometric assay at 550 nm. Control tubes were set up under the same conditions with the inclusion of superoxide dismutase at 600 units per mL. Plumbagin inhibited the generation of superoxide anions from neutrophils activated by both CPPD crystals or fMLP as shown in FIG. 3.
# [4] = Perivascular injection of polymeric paste at the rat carotid artery; assay type: in vivo, Wistar rats; conditions: 1% loading in 40% Triblock / 60% MePEG350 paste, 0.1 to 0.2 ml
# Excerpt: Wistar rats weighing 400 g to 500 g were anesthetized with halothane. A vertical incision was made over the trachea and the left external carotid artery was exposed. Connective tissue around the left common carotid artery was left untouched. Two ligatures were placed around the external carotid artery and an arteriotomy was made between them. A 2 French Fogarty balloon was introduced into the external carotid artery and pushed into the left common carotid artery and the balloon was inflated with saline. The balloon was passed up and down the entire length of the carotid artery three times to stretch the vessel and denude the endothelium. The balloon was removed and the ligatures tied off on the external carotid artery. Camptothecin (1% loading) in a polymeric paste (40% Triblock (Angiotech pharmaceuticals) and 60% Methoxypolyethylene glycol (MePEG350)) or the carrier paste alone was injected through a 24 G angiocatheter between a distal segment of the common carotid artery and the surrounding connective tissue. Typically, 0.1 to 0.2 ml of paste was applied around the artery in 4 injections in order to cover the whole circumference of the vessel on a length of approximately 1 cm. The wound was then closed and the animals recovered.
# [5] = polycaprolactone microspheres 50-90 um, drug to polymer 1:50
# [6] = Example 19 microspheres 50-90 um, drug to polymer 1:40 (beta-lapachone) or 1:100 (etoposide, doxorubicin)
smiles,measurement,setting,value
CC1=CC(=O)c2ccccc2C1=O [menadione],encapsulation efficiency of the drug in the polymer,[1]; [5],73%
CC1=CC(=O)c2c(O)cccc2C1=O [plumbagin],encapsulation efficiency of the drug in the polymer,"[1]; poly(L-lactic acid) 2K microspheres 50-90 um, drug to polymer 1:10",80%
same,encapsulation efficiency of the drug in the polymer,[1]; [5],85%
same,neutrophil degranulation (myeloperoxidase release),neutrophils [2],inhibited
same,generation of superoxide anions from activated neutrophils,neutrophils [3],inhibited
CC1(C)CCC2=C(O1)c1ccccc1C(=O)C2=O [beta-lapachone],encapsulation efficiency of the drug in the polymer,[1]; [6],97%
COc1cccc2c1C(=O)c1c(O)c3c(c(O)c1C2=O)C[C@@](O)(C(=O)CO)C[C@@H]3O[C@H]1C[C@H](N)[C@H](O)[C@H](C)O1 [doxorubicin],encapsulation efficiency of the drug in the polymer,[1]; [6],95%
CC[C@@]1(O)C(=O)OCc2c1cc1n(c2=O)Cc2cc3ccccc3nc2-1 [camptothecin],adverse effects of perivascular paste injection,[4],no adverse effects noted in any animal
